Data as given in PubChem BioAssay AID2060491 (Molecular Pharmacology Branch, DTP, NCI, 2025).
pIC50: −log10 of the molar value.

Test system: 857933-349-R-J2-PDC complex spheroids, viability
Experiment: Anticancer human tumor 857933-349-R-J2-PDC patient-derived colon adenocarcinoma cell line growth inhibition [GQUAD]
Conditions: for pIC50: curve of first compound; for viability, T/C: stronger effect = lower value; active = viability on the fitted dose curve at most 10% of control; inactive = the rest
Method in brief: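 Multi-cell-type spheroids of tumor cells with HUVEC and mesenchymal stem cells, treated with drug combinations. Concentrations descend in half-log steps from near clinical Cmax, or from 10 microM where Cmax is unknown; viability read-out.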

[1] = second compound 0.0316 µM, first compound 0.0316 µM
[2] = second compound 0.0316 µM, first compound 0.1 µM
[3] = second compound 0.0316 µM, first compound 0.316 µM
[4] = second compound 0.0316 µM, first compound 1 µM
[5] = second compound 0.0316 µM, first compound 3.16 µM
[6] = second compound 0.0316 µM, first compound 10 µM
[7] = second compound 0.1 µM, first compound 0.0316 µM
[8] = second compound 0.1 µM, first compound 0.1 µM
[9] = second compound 0.1 µM, first compound 0.316 µM
[10] = second compound 0.1 µM, first compound 1 µM
[11] = second compound 0.1 µM, first compound 3.16 µM
[12] = second compound 0.1 µM, first compound 10 µM
[13] = second compound 0.316 µM, first compound 0.0316 µM
[14] = second compound 0.316 µM, first compound 0.1 µM
[15] = second compound 0.316 µM, first compound 0.316 µM
[16] = second compound 0.316 µM, first compound 1 µM
[17] = second compound 0.316 µM, first compound 3.16 µM
[18] = second compound 0.316 µM, first compound 10 µM
[19] = second compound 1 µM, first compound 0.0316 µM
[20] = second compound 1 µM, first compound 0.1 µM
[21] = second compound 1 µM, first compound 0.316 µM
[22] = second compound 1 µM, first compound 1 µM
[23] = second compound 1 µM, first compound 3.16 µM
[24] = second compound 1 µM, first compound 10 µM
[25] = second compound 3.16 µM, first compound 0.0316 µM
[26] = second compound 3.16 µM, first compound 0.1 µM
[27] = second compound 3.16 µM, first compound 0.316 µM
[28] = second compound 3.16 µM, first compound 1 µM
[29] = second compound 3.16 µM, first compound 3.16 µM
[30] = second compound 3.16 µM, first compound 10 µM
[31] = second compound 10 µM, first compound 0.0316 µM
[32] = second compound 10 µM, first compound 0.1 µM
[33] = second compound 10 µM, first compound 0.316 µM
[34] = second compound 10 µM, first compound 1 µM
[35] = second compound 10 µM, first compound 3.16 µM
[36] = second compound 10 µM, first compound 10 µM
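Note: spheroids exposed to compounds for one week before readout.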
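Throughout, for viability, T/C: percent viability relative to vehicle DMSO wells taken as 100%.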

COc1cc(C2c3cc4c(cc3C(OC3OC5COC(C)OC5C(O)C3O)C3COC(=O)C23)OCO4)cc(OC)c1O (centres undefined) + Cc1[nH]c2ccc(F)cc2c1-c1nc2c3cccnc3c3ncccc3c2[nH]1
inactive: viability, T/C [1] 84.8% | viability, T/C [2] 62.7% | viability, T/C [3] 58% | viability, T/C [4] 53.8% | viability, T/C [5] 42.1% | viability, T/C [6] 24.6% | viability, T/C [7] 86.5% | viability, T/C [8] 73.6% | viability, T/C [9] 50.9% | viability, T/C [10] 59.4% | viability, T/C [11] 38.8% | viability, T/C [12] 24.9% | viability, T/C [13] 88.9% | viability, T/C [14] 69.8% | viability, T/C [15] 55.9% | viability, T/C [16] 59% | viability, T/C [17] 38.9% | viability, T/C [18] 25.4% | viability, T/C [19] 81.4% | viability, T/C [20] 71.8% | viability, T/C [21] 50.7% | viability, T/C [22] 63.1% | viability, T/C [23] 44.6% | viability, T/C [24] 23.5% | viability, T/C [25] 94.9% | viability, T/C [26] 65.3% | viability, T/C [27] 47.6% | viability, T/C [28] 56.2% | viability, T/C [29] 45.4% | viability, T/C [30] 24% | viability, T/C [31] 90.7% | viability, T/C [32] 69.5% | viability, T/C [33] 49.8% | viability, T/C [34] 56.5% | viability, T/C [35] 50.7% | viability, T/C [36] 27.7%
5.99: pIC50 (second compound 0.316 µM)
5.85: pIC50 (second compound 1 µM)
6.03: pIC50 (second compound 0.0316 µM)
6.02: pIC50 (second compound 0.1 µM) | pIC50 (second compound 3.16 µM)
6.01: pIC50 (second compound 10 µM)

COc1cccc2c1C(=O)c1c(O)c3c(c(O)c1C2=O)CC(O)(C(=O)CO)CC3OC1CC(N)C(O)C(C)O1 (centres undefined) + Cc1[nH]c2ccc(F)cc2c1-c1nc2c3cccnc3c3ncccc3c2[nH]1
6.30: pIC50 (second compound 10 µM)
6.02: pIC50 (second compound 0.316 µM)
6.24: pIC50 (second compound 3.16 µM)
active: viability, T/C [6] 0.26% | viability, T/C [12] 0.17% | viability, T/C [17] 5.84% | viability, T/C [18] 0.2% | viability, T/C [23] 5.97% | viability, T/C [24] 0.21% | viability, T/C [30] 0.26% | viability, T/C [36] 0.29%
6.08: pIC50 (second compound 1 µM)
6.35: pIC50 (second compound 0.0316 µM)
inactive: viability, T/C [1] 90.5% | viability, T/C [2] 66% | viability, T/C [3] 59.2% | viability, T/C [4] 41.6% | viability, T/C [5] 5.07% | viability, T/C [7] 81.5% | viability, T/C [8] 63.5% | viability, T/C [9] 59.7% | viability, T/C [10] 49.2% | viability, T/C [11] 7.76% | viability, T/C [13] 74.2% | viability, T/C [14] 66.8% | viability, T/C [15] 56.4% | viability, T/C [16] 51% | viability, T/C [19] 79.9% | viability, T/C [20] 62.5% | viability, T/C [21] 61.9% | viability, T/C [22] 48.6% | viability, T/C [25] 79.4% | viability, T/C [26] 65.7% | viability, T/C [27] 59.4% | viability, T/C [28] 43.6% | viability, T/C [29] 6.19% | viability, T/C [31] 93% | viability, T/C [32] 74.5% | viability, T/C [33] 58.5% | viability, T/C [34] 43.7% | viability, T/C [35] 5.74%
6.14: pIC50 (second compound 0.1 µM)
